Measured values taken from US7825094B2, “Method of treatment for cancers associated with elevated HER 2 levels” (Sloan-Kettering Institute for Cancer Research, priority 2001, dated 2010).

What was measured:
[1] = system: human cancer cell lines BT-474, SKBR-3, SKOV-3, MCF-Her2, MCF-7, MDA-468, MDA-231, T47-D, MDA435; assay: Antiproliferative effect on cancer cell lines expressing different amounts of HER-2 (ethidium bromide nuclei staining, flow cytometry); assay type: cell-based
Protocol: Human cancer cell lines BT-474, SKBR-3, SKOV-3, MCF-Her2, MCF-7, MDA-468, MDA-231, T47-D, and MDA435 were obtained from the American Type Culture Collection (“ATCC;” Manassas, Va., USA). Cell lines were maintained in […] medium, supplemented with 5% fetal calf serum (BRL), 2 mM glutamine, and 50 U/ml each of penicillin and streptomycin, at 37° C. in 5% CO2.
Cells were treated for 24 hours with CNF-101 (17-AAG) at concentrations of 1 to 1000 nM. Following treatment, the nuclei were stained with ethidium bromide and analyzed by flow cytometry. Nuclei were isolated for flow cytometry assays, stained with ethidium bromide and analyzed using a Becton Dickinson fluorescence-activated cell sorter. Statistical data was obtained using Multicycle program software.
Those cell lines expressing the highest levels of HER-2 were the most sensitive to CNF-101 (17-AAG) (FIG. 1).

[2] = system: cyclin D1, cyclin D3, cdk4, AKT, Raf-1 in BT-474 cells; assay: Immunoblot of protein expression in BT-474 (HER-2+++) cells; assay type: cell-based, human; details: 50 nM or 500 nM
Protocol: (§1) Levels of mitotic cyclin expression, HER-2 expression, AKT expression and Raf1 expression in MCF-7 (HER-2 negative) or BT-474 (HER-2+++) cell lines treated with CNF-101 (17-AAG) were assessed using immunoblot analysis. Immunoblot analysis of lysates from cells treated with either 50 nM or 500 nM CNF-101 (17-AAG) were analyzed by Western blot using anti-cyclin D1, anti-cyclin D3, anti-cyclin cdk4, anti-AKT or anti-Raf1 antibodies. All antibodies were obtained from Santa Cruz Biotechnology (Santa Cruz, Calif., USA). Treated cells were harvested, washed with PBS and lysed in NP40 lysis buffer (50 mM Tris pH7.4, 1% NP40,150 mM NaCl, 40 mM NaF. 1 mM Na3VO4, 1 mM phenylmethylsulfonylfluoride, and 10 μg/ml each of leupeptin, aprotinin and soybean trypsin inhibitor) for 30 min on ice. Lysates were centrifuged at 15,000×g for 10 min and protein concentration determined by bicinchoninic acid protein assay (Pierce). Equal amounts of total protein were resolved by SDS-PAGE and transferred onto Immobilon PVDF membranes (Millipore) by electroblotting. Blots were blocked overnight in 5% nonfat milk in TBS-T (0.1% Tween-20 TBS, 10 mM Tris pH 7.4, 150 mM NaCl) at 4° C. and subsequently probed with either anti-HER-2, anti-cylin D1, anti-cyclin D3, anti cdk4, anti-AKT or anti-Raf1 antibodies. Following incubation with HRP-conjugated secondary antibodies, proteins were detected by chemiluminescence (Amersham).

[3] = system: cyclin D1, cyclin D3, cdk4, AKT, Raf-1 in MCF-7 cells; assay: Immunoblot of protein expression in MCF-7 (HER-2 negative) cells; assay type: cell-based, human; details: 50 nM or 500 nM
Protocol: as §1

[4] = system: AKT kinase activity in high HER-2 (SKBr3) cells; assay: AKT kinase activity after immunoprecipitation (GSK-1 substrate, 32-P ATP) in SKBr3 cells; assay type: cell-based, human; details: 100 nM
Protocol: (§2) Lysates were resolved by SDS-PAGE, transferred onto Immobilon PVDF membranes, blocked in 5% nonfat milk and probed with antibodies to AKT or […] phosphorylated AKT (phospho-AKT) from Upstate. Following incubation with HRP-conjugated secondary antibodies, proteins were detected using chemiluminescnce (Amersham). AKT kinase activity was assessed following immunopreciptation by a standard kinase assay with the recombinant AKT substrate protein […] and 32-P labelled ATP. AKT is a key kinase in tumor cells.

[5] = system: AKT kinase activity in HER-2-low MCF-7 line; assay: AKT kinase activity after immunoprecipitation (GSK-1 substrate, 32-P ATP) in MCF-7 cells; assay type: cell-based, human; details: ten times 100 nM
Protocol: as §2, with “Cells were treated with 1 uM CNF-101 (17-AAG) for 24 hrs, washed, harvested and lysed in NP-40. Lysates” for “Lysates”

[6] = system: AKT and phospho-AKT in HER-2+++ and HER-2- cells; assay: Western blot of AKT and phospho-AKT in HER-2+++ and HER-2- cells; assay type: cell-based, human; details: 1 uM, 24 hrs
Protocol: as §2, with “Cells were treated with 1 uM CNF-101 (17-AAG) for 24 hrs, washed, harvested and lysed in NP-40. Lysates” for “Lysates”

[7] = system: AKT and phospho-AKT in BT-474, SKBR-3, U87, MCF-7, MDA-468 cells; assay: Western blot of AKT and phospho-AKT in a panel of cell lines; assay type: cell-based, human
Protocol: Cells were treated with 1 uM CNF-101 (17-AAG) for 24 hrs, washed, harvested and lysed in NP-40. Lysates were resolved by SDS-PAGE, transferred onto Immobilon PVDF membranes, blocked in 5% nonfat milk and probed with antibodies to AKT or […] phosphorylated AKT (phospho-AKT) from Upstate. Following incubation with HRP-conjugated secondary antibodies, proteins were detected using chemiluminescnce (Amersham). AKT is a key kinase in tumor cells.

[8] = system: HER-2, AKT and phospho-AKT in BT-474 xenografts; assay: Western blot of HER-2, AKT and phospho-AKT in BT-474 breast carcinoma xenografts; assay type: in vivo, Swiss nu/nu mice; details: 50 mg/kg, intraperitoneally
Protocol: BT-474 breast tumor cells were implanted subcutaneously on the flank of Swiss nu/nu mice and allowed to become established to a diameter of 5 mm. Animals were treated intraperitoneally with optimal doses of CNF-101 (17-AAG) and tumors removed at the indicated times thereafter. Tumor tissue was snap-frozen at the time of removal. For analysis, tissues were rapidly thawed, lysed and assaysed for HER-2, AKT and phospho-AKT by Western blotting.

[9] = HER-2 overexpressing cells (BT-474)
[10] = HER low expressing cells (MCF-7)
[11] = 1 uM, 24 hrs, panel of cell lines

C=CCNC1=C2C[C@@H](C)C[C@H](OC)[C@H](O)[C@@H](C)/C=C(\C)[C@H](OC(N)=O)[C@@H](OC)/C=C\C=C(/C)C(=O)NC(=CC1=O)C2=O [CNF-101 (17-AAG), 17-allylamino-17-demethoxygeldanamycin]
growth arrest ([1]; 24 hours, 1 to 1000 nM, all cell lines tested (FIG. 1)): caused growth arrest in all the cell lines tested
difference in sensitivity between congenic pair ([1]; MCF-7 vs. MCF-7/HER-2): 10 fold
sensitivity of high HER-2 lines versus low HER-2 lines ([1]; high HER-2: BT-474, SKBR-3, SKOV-3, MDA435, low HER-2: MDA-468, MDA-231, T47D): markedly more sensitive
cyclin D1 protein level ([2]; BT-474): rapid decrease
cyclin D3 protein level ([2]; BT-474): rapid decrease
Raf-1 (HSP90 client protein) level ([2]; BT-474, 0, 4, 12, 24 hours): degradation
AKT protein level [2, 9]: not affected
cdk4 protein level [2, 9]: not affected
AKT protein level [3, 10]: not affected
cdk4 protein level [3, 10]: not affected
decrease in cyclin D1 protein level ([3]; MCF-7 (low HER-2)): not seen
decrease in cyclin D3 protein level ([3]; MCF-7 (low HER-2)): not seen
Raf-1 (HSP90 client protein) level ([3]; MCF-7, 0, 4, 12, 24 hours): degradation
time to complete loss of AKT activity [4]: ≤ 3 h
time to cause even partial loss of AKT kinase activity [5]: 12 h
AKT protein level [6]: does not cause significant loss of the protein
phospho-AKT level [6]: disappears from the treated cells
AKT protein level [7, 11]: does not cause significant loss of the protein
phospho-AKT level [7, 11]: disappears from the treated cells
AKT activity ([7]; 1 uM, multiple cell lines): causes loss of AKT activity in multiple cell lines
loss of AKT activity in high HER-2 lines versus low HER-2 lines ([7]; high HER-2: BT-474, SKBR-3, low HER-2: U87, MCF-7, MDA-468): much more rapid and complete loss of AKT activity
AKT protein levels in xenograft [8]: remained constant
HER-2 protein levels in xenograft [8]: declined
phosphorylated ("active") AKT protein in xenograft [8]: declined rapidly
